According to patent US9682995B2, “Amino-substituted isothiazoles” (BAYER PHARMA AKTIENGESELLSCHAFT, priority 2013, dated 2017):

Assays:
Test in all cases: Kinase Profiling (KINOMEscan)
Type in all cases: binding
[1] = target: 456 kinases (of these 395 non-mutant kinases) (Homo sapiens, UniProt P08581, M1250T); details: MET(M1250T); 10 μM
[2] = target: 456 kinases (of these 395 non-mutant kinases) (Homo sapiens, UniProt Q7KZI7); details: MARK2; 10 μM
[3] = target: 456 kinases (of these 395 non-mutant kinases) (Homo sapiens, UniProt Q56UN5); details: YSK4; 10 μM
[4] = target: 456 kinases (of these 395 non-mutant kinases) (Homo sapiens, UniProt P36888, R834Q); details: FLT3(R834Q); 10 μM
[5] = target: 456 kinases (of these 395 non-mutant kinases) (Homo sapiens, UniProt Q14289); details: PYK2; 10 μM
[6] = target: 456 kinases (of these 395 non-mutant kinases) (Homo sapiens, UniProt P41743); details: PRKCI; 10 μM
456 kinases (of these 395 non-mutant kinases) (Homo sapiens, UniProt P41743), sequence (P41743 2-596 limits assumed, change not shown): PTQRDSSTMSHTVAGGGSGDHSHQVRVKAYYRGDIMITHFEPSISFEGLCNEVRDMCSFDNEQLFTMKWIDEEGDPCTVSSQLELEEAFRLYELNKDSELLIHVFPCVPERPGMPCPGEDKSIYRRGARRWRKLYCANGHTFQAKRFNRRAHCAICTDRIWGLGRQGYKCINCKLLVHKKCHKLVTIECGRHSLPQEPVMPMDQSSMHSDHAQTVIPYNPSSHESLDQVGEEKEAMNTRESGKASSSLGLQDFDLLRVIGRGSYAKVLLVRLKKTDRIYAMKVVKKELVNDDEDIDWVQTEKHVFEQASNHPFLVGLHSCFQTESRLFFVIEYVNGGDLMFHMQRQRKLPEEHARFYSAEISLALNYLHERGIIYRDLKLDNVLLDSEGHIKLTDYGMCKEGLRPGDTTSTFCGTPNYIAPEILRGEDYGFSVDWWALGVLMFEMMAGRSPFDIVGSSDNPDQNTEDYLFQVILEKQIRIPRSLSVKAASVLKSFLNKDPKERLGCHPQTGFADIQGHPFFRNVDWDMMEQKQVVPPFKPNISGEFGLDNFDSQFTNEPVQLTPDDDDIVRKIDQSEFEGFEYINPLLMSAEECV

[7] = target: 456 kinases (of these 395 non-mutant kinases) (Homo sapiens, UniProt P41240); details: CSK; 10 μM
456 kinases (of these 395 non-mutant kinases) (Homo sapiens, UniProt P41240), sequence (P41240 2-450 limits assumed, change not shown): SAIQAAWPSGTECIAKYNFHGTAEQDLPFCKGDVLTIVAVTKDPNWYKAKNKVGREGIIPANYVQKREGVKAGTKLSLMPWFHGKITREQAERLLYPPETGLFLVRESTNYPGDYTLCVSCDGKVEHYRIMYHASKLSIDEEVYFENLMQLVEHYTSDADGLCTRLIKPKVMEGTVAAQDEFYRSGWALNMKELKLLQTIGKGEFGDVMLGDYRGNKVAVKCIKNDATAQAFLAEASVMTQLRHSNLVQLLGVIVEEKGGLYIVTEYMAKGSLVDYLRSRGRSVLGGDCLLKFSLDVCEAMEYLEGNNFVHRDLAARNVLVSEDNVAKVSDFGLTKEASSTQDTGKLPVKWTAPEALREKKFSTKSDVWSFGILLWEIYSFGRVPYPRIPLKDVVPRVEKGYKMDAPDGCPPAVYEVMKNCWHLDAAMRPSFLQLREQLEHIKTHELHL

[8] = target: 456 kinases (of these 395 non-mutant kinases) (Homo sapiens, UniProt Q8IW41); details: MAPKAPK5; 10 μM
[9] = target: 456 kinases (of these 395 non-mutant kinases) (Homo sapiens, UniProt Q15349); details: 10 μM
[10] = target: 456 kinases (of these 395 non-mutant kinases) (Homo sapiens, UniProt Q13523); details: PRP4; 10 μM
[11] = target: 456 kinases (of these 395 non-mutant kinases) (Homo sapiens, UniProt O14730); details: RIOK3; 10 μM
[12] = target: 456 kinases (of these 395 non-mutant kinases) (Homo sapiens, UniProt O75914); details: PAK3; 10 μM
[13] = target: 456 kinases (of these 395 non-mutant kinases) (Homo sapiens, UniProt Q9UBF8); details: PIK4CB; 10 μM
456 kinases (of these 395 non-mutant kinases) (Homo sapiens, UniProt Q9UBF8), sequence (Q9UBF8 2-816 limits assumed, change not shown): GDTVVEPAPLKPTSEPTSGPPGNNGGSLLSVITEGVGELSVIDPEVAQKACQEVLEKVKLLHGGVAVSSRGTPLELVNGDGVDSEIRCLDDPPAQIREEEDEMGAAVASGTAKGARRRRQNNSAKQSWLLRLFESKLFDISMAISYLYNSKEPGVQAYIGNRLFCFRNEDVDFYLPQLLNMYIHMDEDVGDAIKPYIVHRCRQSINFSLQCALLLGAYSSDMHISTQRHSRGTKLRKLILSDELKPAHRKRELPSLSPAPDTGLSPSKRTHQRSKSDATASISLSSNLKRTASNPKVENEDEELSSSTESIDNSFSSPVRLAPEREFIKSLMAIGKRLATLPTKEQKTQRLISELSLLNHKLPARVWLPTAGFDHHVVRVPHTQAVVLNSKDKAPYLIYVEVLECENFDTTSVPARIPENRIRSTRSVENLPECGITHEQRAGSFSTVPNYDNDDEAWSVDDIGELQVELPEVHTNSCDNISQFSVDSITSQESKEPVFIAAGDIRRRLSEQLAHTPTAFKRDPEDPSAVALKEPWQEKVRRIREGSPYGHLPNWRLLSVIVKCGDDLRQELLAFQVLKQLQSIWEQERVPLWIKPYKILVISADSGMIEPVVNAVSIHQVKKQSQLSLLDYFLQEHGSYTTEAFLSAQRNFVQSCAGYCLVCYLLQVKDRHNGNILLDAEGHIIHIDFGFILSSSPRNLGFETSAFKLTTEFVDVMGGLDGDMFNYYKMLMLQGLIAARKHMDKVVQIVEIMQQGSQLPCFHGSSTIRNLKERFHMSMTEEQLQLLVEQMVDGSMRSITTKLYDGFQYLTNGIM

[14] = target: 456 kinases (of these 395 non-mutant kinases) (Homo sapiens, UniProt Q96NX5); details: CAMK1G; 10 μM
[15] = target: 456 kinases (of these 395 non-mutant kinases) (Homo sapiens, UniProt P10721, T670I/V559D); details: KIT(V559D,T670I); 10 μM
456 kinases (of these 395 non-mutant kinases) (Homo sapiens, UniProt P10721, T670I/V559D), sequence (P10721 26-976 V559D/T670I limits assumed): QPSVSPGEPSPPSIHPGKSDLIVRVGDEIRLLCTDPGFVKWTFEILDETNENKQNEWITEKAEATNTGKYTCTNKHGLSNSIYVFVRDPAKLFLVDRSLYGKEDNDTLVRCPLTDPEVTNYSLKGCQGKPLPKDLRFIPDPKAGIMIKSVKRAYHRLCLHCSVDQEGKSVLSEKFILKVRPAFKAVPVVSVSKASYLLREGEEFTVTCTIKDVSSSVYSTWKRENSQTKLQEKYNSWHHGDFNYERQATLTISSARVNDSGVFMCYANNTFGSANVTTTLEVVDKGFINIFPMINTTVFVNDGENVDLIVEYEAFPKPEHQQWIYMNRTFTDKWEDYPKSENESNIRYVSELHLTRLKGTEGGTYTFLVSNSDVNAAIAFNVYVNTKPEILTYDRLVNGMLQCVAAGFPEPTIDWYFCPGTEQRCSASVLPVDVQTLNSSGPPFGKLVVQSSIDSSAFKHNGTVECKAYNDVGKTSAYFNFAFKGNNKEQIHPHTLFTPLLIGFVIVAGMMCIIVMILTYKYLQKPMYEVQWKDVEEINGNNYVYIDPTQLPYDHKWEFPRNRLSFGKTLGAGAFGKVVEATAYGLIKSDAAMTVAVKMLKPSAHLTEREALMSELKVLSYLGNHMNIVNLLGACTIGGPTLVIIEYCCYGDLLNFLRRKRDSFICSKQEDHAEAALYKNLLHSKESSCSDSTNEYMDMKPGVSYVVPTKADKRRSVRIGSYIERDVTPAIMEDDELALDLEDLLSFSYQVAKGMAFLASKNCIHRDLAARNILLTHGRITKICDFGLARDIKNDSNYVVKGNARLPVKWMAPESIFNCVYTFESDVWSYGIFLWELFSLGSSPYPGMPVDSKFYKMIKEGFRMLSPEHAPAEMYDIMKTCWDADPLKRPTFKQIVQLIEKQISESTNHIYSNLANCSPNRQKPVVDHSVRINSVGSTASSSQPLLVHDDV

[16] = target: 456 kinases (of these 395 non-mutant kinases) (Homo sapiens, UniProt Q16566); details: CAMK4; 10 μM
[17] = target: 456 kinases (of these 395 non-mutant kinases) (Homo sapiens, UniProt Q9Y6E0); details: MST3; 10 μM
[18] = target: 456 kinases (of these 395 non-mutant kinases) (Homo sapiens, UniProt Q9H3Y6); details: SRMS; 10 μM
[19] = target: 456 kinases (of these 395 non-mutant kinases) (Homo sapiens, UniProt P00519, Q252H); details: 10 μM
[20] = target: 456 kinases (of these 395 non-mutant kinases) (Homo sapiens, UniProt O43683); details: BUB1; 10 μM
[21] = target: 456 kinases (of these 395 non-mutant kinases) (Homo sapiens, UniProt Q9Y616); details: IRAK3; 10 μM
[22] = target: 456 kinases (of these 395 non-mutant kinases) (Homo sapiens, UniProt Q8N568); details: DCAMKL2; 10 μM
[23] = target: 456 kinases (of these 395 non-mutant kinases) (Homo sapiens, UniProt P04049); details: RAF1; 10 μM
[24] = target: 456 kinases (of these 395 non-mutant kinases) (Homo sapiens, UniProt Q9UQ88); details: CDC2L2; 10 μM
[25] = target: 456 kinases (of these 395 non-mutant kinases) (Homo sapiens, UniProt Q99683); details: ASK1; 10 μM
[26] = target: 456 kinases (of these 395 non-mutant kinases) (Homo sapiens, UniProt Q9UPZ9); details: ICK; 10 μM
[27] = target: 456 kinases (of these 395 non-mutant kinases) (Homo sapiens, UniProt Q06187); details: BTK; 10 μM
456 kinases (of these 395 non-mutant kinases) (Homo sapiens, UniProt Q06187), sequence (Q06187 2-659 limits assumed, change not shown): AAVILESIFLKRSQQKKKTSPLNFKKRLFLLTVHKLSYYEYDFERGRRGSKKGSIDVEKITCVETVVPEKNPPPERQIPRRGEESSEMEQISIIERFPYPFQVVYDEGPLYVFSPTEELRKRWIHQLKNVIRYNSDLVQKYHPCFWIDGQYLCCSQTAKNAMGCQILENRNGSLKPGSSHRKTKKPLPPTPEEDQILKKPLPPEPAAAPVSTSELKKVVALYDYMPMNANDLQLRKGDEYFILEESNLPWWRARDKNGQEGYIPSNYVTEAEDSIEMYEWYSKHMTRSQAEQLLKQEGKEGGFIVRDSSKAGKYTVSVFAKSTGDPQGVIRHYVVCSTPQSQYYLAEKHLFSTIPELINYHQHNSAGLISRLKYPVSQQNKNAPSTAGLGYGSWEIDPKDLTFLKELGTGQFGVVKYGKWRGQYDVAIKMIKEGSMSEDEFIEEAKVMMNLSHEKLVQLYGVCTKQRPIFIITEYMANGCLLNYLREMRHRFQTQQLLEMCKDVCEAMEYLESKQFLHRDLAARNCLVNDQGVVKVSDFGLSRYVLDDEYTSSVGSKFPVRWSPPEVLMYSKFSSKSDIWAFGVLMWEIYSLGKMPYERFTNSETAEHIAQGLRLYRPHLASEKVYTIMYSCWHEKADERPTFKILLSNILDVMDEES

[28] = target: 456 kinases (of these 395 non-mutant kinases) (Homo sapiens, UniProt O95382); details: ASK2; 10 μM
[29] = target: 456 kinases (of these 395 non-mutant kinases) (Homo sapiens, UniProt Q13237); details: PRKG2; 10 μM
456 kinases (of these 395 non-mutant kinases) (Homo sapiens, UniProt Q13237), sequence (Q13237 2-762 limits assumed, change not shown): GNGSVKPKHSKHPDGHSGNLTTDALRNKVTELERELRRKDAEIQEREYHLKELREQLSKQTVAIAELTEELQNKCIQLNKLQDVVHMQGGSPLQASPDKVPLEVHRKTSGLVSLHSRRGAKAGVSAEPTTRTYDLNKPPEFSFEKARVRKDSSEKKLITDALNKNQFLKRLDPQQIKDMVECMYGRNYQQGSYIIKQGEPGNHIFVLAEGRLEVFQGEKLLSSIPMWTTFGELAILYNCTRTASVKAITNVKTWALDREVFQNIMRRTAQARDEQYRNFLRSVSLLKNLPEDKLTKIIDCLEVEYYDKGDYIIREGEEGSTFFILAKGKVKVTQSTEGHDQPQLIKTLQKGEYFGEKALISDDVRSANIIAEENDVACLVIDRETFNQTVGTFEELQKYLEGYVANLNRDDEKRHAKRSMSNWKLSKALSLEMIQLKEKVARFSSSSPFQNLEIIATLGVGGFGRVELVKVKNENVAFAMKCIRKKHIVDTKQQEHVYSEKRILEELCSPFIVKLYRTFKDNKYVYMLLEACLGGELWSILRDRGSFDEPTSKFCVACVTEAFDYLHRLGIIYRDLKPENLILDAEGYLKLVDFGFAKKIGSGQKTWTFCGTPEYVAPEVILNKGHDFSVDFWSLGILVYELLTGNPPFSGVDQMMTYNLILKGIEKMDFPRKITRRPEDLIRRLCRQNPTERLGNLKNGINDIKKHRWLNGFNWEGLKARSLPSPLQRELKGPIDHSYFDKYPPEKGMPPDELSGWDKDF

[30] = target: 456 kinases (of these 395 non-mutant kinases) (Homo sapiens, UniProt O00329); details: PIK3CD; 10 μM
[31] = test system: 456 kinases (of these 395 non-mutant kinases); details: 10 μM

## CCc1ccccc1NC(=O)c1c(C)nsc1Nc1cnc2cc(F)ccc2n1 [Example 20, N-(2-Ethylphenyl)-5-[(6-fluoroquinoxalin-2-yl)amino]-3-methyl-1,2-thiazole-4-carboxamide]
[1]
  % Ctrl @ 10 μM: 100 % Ctrl
[2]
  % Ctrl @ 10 μM: 83 % Ctrl
[3]
  % Ctrl @ 10 μM: 100 % Ctrl
[4]
  % Ctrl @ 10 μM: 93 % Ctrl
[5]
  % Ctrl @ 10 μM: 100 % Ctrl
[6]
  % Ctrl @ 10 μM: 100 % Ctrl
[7]
  % Ctrl @ 10 μM: 100 % Ctrl
[8]
  % Ctrl @ 10 μM: 100 % Ctrl
[9]; RSK3(Kin.Dom.1-N-terminal)
  % Ctrl @ 10 μM: 72 % Ctrl
[9]; RSK3(Kin.Dom.2-C-terminal)
  % Ctrl @ 10 μM: 79 % Ctrl
[10]
  % Ctrl @ 10 μM: 87 % Ctrl
[11]
  % Ctrl @ 10 μM: 91 % Ctrl
[12]
  % Ctrl @ 10 μM: 100 % Ctrl
[13]
  % Ctrl @ 10 μM: 78 % Ctrl
[14]
  % Ctrl @ 10 μM: 86 % Ctrl
[15]
  % Ctrl @ 10 μM: 100 % Ctrl
[16]
  % Ctrl @ 10 μM: 100 % Ctrl
[17]
  % Ctrl @ 10 μM: 75 % Ctrl
[18]
  % Ctrl @ 10 μM: 100 % Ctrl
[19]; ABL1(Q252H)-nonphosphorylated
  % Ctrl @ 10 μM: 100 % Ctrl
[19]; ABL1(Q252H)-phosphorylated
  % Ctrl @ 10 μM: 100 % Ctrl
[20]
  % Ctrl @ 10 μM: 100 % Ctrl
[21]
  % Ctrl @ 10 μM: 100 % Ctrl
[22]
  % Ctrl @ 10 μM: 98 % Ctrl
[23]
  % Ctrl @ 10 μM: 100 % Ctrl
[24]
  % Ctrl @ 10 μM: 85 % Ctrl
[25]
  % Ctrl @ 10 μM: 90 % Ctrl
[26]
  % Ctrl @ 10 μM: 100 % Ctrl
[27]
  % Ctrl @ 10 μM: 98 % Ctrl
[28]
  % Ctrl @ 10 μM: 73 % Ctrl
[29]
  % Ctrl @ 10 μM: 100 % Ctrl
[30]
  % Ctrl @ 10 μM: 100 % Ctrl
[31]; EGFR(L747-E749del, A750P)
  % Ctrl @ 10 μM: 94 % Ctrl
[31]; EGFR(L747-S752del, P753S)
  % Ctrl @ 10 μM: 100 % Ctrl
[31]; EGFR(L747-T751del,Sins)
  % Ctrl @ 10 μM: 100 % Ctrl
[31]; FLT3(ITD)
  % Ctrl @ 10 μM: 67 % Ctrl
